Data as given in patent EP4660182A1, “NAV1.7- AND/OR NAV1.8-INHIBITING ARYL PYRIDINE COMPOUNDS, PROCESSES FOR THE PREPARATION THEREOF, COMPOSITIONS, USES, METHODS FOR TREATMENT USING SAME, AND KITS” (Eurofarma Laboratórios S.A., priority 2023, dated 2024).

How the values were obtained:
[1] = target: T1, human sodium channels Nav 1.8 (Homo sapiens, UniProt Q9Y5Y9); test: Automated whole-cell voltage-clamp (ScreenPatch 384P) sodium current block, Nav 1.8; assay type: cell-based; conditions: CHO cells stably expressing human Nav 1.8; inactivation step -40 mV 8 s, test step 10 mV (TP1A); eight concentrations; exposure at least five minutes; room temperature; read-out: Nav1.8 IC50
T1 construct: expressed in transfected cells
T1 sequence (Q9Y5Y9 whole entry): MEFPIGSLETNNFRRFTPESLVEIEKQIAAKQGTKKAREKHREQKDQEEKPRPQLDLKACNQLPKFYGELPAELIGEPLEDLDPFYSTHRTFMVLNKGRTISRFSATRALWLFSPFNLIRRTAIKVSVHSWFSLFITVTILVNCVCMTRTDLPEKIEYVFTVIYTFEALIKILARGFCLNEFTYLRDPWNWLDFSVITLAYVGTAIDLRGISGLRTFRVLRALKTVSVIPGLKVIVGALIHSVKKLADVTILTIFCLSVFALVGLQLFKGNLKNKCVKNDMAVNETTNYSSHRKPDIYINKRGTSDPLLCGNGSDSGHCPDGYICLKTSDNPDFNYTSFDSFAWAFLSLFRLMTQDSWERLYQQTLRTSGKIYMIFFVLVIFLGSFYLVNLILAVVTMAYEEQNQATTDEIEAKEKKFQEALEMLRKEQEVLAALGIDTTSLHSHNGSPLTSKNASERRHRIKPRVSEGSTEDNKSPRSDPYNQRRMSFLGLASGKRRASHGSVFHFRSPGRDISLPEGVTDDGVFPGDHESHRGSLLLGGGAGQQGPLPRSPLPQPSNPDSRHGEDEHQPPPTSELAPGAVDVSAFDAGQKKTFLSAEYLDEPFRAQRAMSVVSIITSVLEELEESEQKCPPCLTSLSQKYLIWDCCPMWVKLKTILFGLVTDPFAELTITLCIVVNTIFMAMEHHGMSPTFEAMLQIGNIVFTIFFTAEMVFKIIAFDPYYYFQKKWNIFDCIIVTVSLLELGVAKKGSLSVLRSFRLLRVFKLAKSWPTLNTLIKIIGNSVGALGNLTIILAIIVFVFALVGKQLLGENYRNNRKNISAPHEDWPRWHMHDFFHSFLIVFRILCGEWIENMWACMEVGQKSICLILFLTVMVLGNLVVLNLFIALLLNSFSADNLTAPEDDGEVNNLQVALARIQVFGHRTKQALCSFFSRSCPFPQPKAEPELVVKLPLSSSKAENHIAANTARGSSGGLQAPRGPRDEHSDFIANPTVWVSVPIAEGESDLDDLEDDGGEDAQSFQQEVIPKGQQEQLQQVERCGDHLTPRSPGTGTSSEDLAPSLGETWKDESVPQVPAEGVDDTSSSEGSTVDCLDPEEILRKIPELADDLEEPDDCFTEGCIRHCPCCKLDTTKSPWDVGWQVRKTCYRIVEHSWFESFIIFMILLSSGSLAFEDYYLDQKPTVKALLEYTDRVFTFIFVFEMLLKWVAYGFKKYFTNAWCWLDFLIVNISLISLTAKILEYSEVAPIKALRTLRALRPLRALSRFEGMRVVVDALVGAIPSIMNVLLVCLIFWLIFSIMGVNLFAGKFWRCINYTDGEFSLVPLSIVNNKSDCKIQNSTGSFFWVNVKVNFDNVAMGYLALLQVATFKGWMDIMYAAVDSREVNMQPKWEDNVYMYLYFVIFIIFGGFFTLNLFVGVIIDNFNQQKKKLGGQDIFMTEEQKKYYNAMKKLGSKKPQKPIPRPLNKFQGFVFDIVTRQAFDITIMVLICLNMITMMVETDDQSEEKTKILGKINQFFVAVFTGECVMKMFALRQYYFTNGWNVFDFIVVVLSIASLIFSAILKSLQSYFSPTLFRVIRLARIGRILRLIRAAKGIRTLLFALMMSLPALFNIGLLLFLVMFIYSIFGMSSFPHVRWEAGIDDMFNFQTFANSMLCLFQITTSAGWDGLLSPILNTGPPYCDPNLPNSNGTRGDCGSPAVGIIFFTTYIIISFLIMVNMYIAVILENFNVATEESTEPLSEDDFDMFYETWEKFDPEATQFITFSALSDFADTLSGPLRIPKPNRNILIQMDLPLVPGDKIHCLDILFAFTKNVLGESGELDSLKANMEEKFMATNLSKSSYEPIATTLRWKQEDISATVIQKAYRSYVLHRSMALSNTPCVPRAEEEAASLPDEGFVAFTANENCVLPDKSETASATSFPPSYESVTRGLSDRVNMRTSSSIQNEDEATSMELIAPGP
Summary of the method: (§1)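 Stable CHO lines, whole-cell automated patch clamp at room temperature, ≥5 min exposure, eight concentrations. From -100 mV hold, 8 s at -40 mV, 20 ms at -100 mV, then test pulse to 10 mV (Nav 1.8) or 0 mV (Nav 1.7) at 0.05 Hz; peak-current % block fitted for IC50, averaged over repeats.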

[2] = target: T2, human sodium channels Nav 1.7 (Homo sapiens, UniProt Q15858); test: Automated whole-cell voltage-clamp (ScreenPatch 384P) sodium current block, Nav 1.7; assay type: cell-based; conditions: CHO cells stably expressing human Nav 1.7; inactivation step -40 mV 8 s, test step 0 mV (TP1A); eight concentrations; exposure at least five minutes; room temperature; read-out: Nav1.7 IC50
T2 construct: expressed in transfected cells
T2 sequence (Q15858 whole entry): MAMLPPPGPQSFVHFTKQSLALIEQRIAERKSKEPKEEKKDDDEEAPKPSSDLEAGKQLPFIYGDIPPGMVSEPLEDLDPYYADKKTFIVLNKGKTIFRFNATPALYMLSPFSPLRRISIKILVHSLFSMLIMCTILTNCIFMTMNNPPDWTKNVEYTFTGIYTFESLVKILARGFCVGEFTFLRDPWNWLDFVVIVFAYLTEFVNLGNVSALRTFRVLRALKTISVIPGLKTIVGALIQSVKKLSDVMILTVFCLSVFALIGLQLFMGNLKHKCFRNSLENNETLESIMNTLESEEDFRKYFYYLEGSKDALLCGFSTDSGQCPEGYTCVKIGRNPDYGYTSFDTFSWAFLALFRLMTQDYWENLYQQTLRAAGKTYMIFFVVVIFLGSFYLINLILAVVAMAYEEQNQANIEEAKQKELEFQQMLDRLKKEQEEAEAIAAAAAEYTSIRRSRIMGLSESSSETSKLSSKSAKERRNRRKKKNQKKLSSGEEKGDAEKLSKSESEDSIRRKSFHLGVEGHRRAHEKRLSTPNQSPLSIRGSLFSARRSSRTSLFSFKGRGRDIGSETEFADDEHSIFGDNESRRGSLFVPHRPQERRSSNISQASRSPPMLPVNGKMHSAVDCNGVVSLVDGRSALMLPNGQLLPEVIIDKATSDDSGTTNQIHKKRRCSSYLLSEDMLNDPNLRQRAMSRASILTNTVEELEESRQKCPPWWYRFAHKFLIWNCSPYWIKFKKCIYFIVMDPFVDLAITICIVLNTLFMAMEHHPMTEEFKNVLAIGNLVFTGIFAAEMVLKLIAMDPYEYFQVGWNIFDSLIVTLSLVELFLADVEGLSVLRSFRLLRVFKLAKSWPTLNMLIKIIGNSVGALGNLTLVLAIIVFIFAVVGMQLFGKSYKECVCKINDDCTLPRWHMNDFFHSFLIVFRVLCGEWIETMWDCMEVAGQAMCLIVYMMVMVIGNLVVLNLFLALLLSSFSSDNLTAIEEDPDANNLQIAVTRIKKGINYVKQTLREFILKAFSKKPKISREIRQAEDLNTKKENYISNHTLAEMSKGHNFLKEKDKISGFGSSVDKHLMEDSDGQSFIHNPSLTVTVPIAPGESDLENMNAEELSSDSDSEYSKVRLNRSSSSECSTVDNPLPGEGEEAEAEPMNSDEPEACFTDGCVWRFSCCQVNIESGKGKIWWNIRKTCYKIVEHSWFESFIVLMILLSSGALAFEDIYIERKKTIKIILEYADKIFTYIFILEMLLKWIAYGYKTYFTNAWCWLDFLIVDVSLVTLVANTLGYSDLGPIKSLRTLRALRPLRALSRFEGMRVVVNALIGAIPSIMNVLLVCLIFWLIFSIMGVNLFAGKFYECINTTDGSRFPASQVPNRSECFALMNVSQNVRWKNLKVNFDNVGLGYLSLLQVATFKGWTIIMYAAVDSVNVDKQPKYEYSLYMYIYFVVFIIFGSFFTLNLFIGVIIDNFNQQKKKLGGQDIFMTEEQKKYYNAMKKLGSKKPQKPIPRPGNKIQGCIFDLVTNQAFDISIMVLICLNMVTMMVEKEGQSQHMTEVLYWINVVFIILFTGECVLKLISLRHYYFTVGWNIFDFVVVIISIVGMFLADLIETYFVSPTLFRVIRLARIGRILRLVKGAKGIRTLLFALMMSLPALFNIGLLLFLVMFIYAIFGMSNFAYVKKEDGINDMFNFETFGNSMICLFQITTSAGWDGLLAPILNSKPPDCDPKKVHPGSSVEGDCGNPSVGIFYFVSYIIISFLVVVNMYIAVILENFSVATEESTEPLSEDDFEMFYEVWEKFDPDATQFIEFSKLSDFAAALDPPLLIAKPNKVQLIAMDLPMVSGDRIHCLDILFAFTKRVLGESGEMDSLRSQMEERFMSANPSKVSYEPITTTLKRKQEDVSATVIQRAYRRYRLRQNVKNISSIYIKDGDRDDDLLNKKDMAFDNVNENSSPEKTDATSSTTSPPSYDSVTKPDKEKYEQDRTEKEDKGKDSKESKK
Summary of the method: as §1

Row | IC50 [1] | IC50 [2] | SMILES
1 | 500 to 1000 nM | > 1000 nM | CCOc1ccc(-c2nc(C(=O)N/N=C/c3cc(OC)ccc3F)cnc2N)cn1 [Compound 63, (E)-5-amino-6-(6-ethoxypyridine-3-yl)-N'-(2-fluoro-5-methoxybenzylidene) pyrazine-2-carbohydrazide]
2 | > 1000 nM | > 1000 nM | COc1ccc(F)c(/C=N/NC(=O)c2cncc(-c3ccc(OCCO)nc3)n2)c1 [Compound 137, (E)-N'-(2-fluoro-5-methoxybenzylidene)-6-(6-(2-hydroxyethoxy)pyridine-3-yl)pyrazine-2-carbohydrazide]
3 | < 500 nM | < 500 nM | O=C(N/N=C/c1cc(OC2CC2)ccc1F)c1cncc(-c2ccc(OC(F)(F)F)nc2)n1 [Compound 94, (E)-N'-(5-cyclopropoxy-2-fluorobenzylidene)-6-(6-(trifluoromethoxy)pyridine-3-yl)pyrazine-2-carbohydrazide]
4 | < 500 nM | > 1000 nM | CN(C)c1ccc(F)c(/C=N/NC(=O)c2cncc(-c3ccc(OC(F)(F)F)nc3)n2)c1 [Compound 93, (E)-N'-(5-(dimethylamino)-2-fluorobenzylidene)-6-(6-(trifluoromethoxy)pyridine-3-yl) pyrazine-2-carbohydrazide]
5 | > 1000 nM | > 1000 nM | CCOc1ccc(-c2cncc(C(=O)N/N=C/c3cc(OC)cc(O)c3F)n2)cn1 [Compound 44, (E)-6-(6-ethoxypyridine-3-yl)-N'-(2-fluoro-3-hydroxy-5-methoxybenzylidene) pyrazine-2-carbohydrazide]
6 | < 500 nM | > 1000 nM | CCOc1ccc(-c2cncc(C(=O)N/N=C/c3cncc(OC)c3)n2)cn1 [Compound 18, (E)-6-(6-ethoxypyridine-3-yl)-N'-((5-methoxypyridine-3-yl)methylene)pyrazine-2-carbohydrazide]
7 | > 1000 nM | > 1000 nM | CCOc1ccc(-c2cncc(C(=O)N/N=C/c3cc(C(C)O)ccn3)n2)cn1 (centres unmarked) [Compound 31, (E)-6-(6-ethoxypyridine-3-yl)-N'-((4-(1-hydroxyethyl)pyridine-2-yl)methylene)pyrazine-2-carbohydrazide]
8 | > 1000 nM | > 1000 nM | O=C(N/N=C/c1ccncc1)c1cncc(-c2ccc(OC(F)(F)F)nc2)n1 [Compound 87, (E)-N'-(pyridine-4-ylmethylene)-6-(6-(trifluoromethoxy)pyridine-3-yl)pyrazine-2-carbohydrazide]
9 | > 1000 nM | > 1000 nM | CCOc1ccc(-c2nc(C(=O)N/N=C/c3cc(OC)ccc3F)cn(C)c2=O)cn1 [Compound 76, (E)-6-(6-ethoxypyridine-3-yl)-N'-(2-fluoro-5-methoxybenzylidene)-4-methyl-5-oxo-4,5-dihydropyrazine-2-carbohydrazide]
10 | 500 to 1000 nM | > 1000 nM | CCOc1ccc(-c2cncc(C(=O)N/N=C/c3nccn3CC)n2)cn1 [Compound 60, (E)-6-(6-ethoxypyridine-3-yl)-N'-((1-ethyl-1H-imidazole-2-yl)methylene)pyrazine-2-carbohydrazide]
11 | < 500 nM | > 1000 nM | CCOc1ccc(-c2cncc(C(=O)N/N=C/c3cc(OC)cnc3F)n2)cn1 [Compound 7, (E)-6-(6-ethoxypyridine-3-yl)-N'-((2-fluoro-5-methoxypyridine-3-yl)methylene)pyrazine-2-carbohydrazide]
12 | < 500 nM | > 1000 nM | CCOc1ccc(-c2cncc(C(=O)N/N=C/c3cccn3C)n2)cn1 [Compound 50, (E)-6-(6-ethoxypyridine-3-yl)-N'-((1-methyl-1H-pyrrole-2-yl)methylene)pyrazine-2-carbohydrazide]
13 | 500 to 1000 nM | > 1000 nM | CCOc1ncc(-c2cncc(C(=O)N/N=C/c3cc(OC)cnc3F)n2)cc1O [Compound 157, (E)-6-(6-ethoxy-5-hydroxypyridine-3-yl)-N'-((2-fluoro-5-methoxypyridine-3-yl)methylene) pyrazine-2-carbohydrazide]
14 | > 1000 nM | > 1000 nM | COc1cnc(F)c(/C=N/NC(=O)c2cncc(-c3ccc(OCCC4CNC4)nc3)n2)c1 [Compound 144, (E)-6-(6-(2-(azetidine-3-yl)ethoxy)pyridine-3-yl)-N'-((2-fluoro-5-methoxypyridine-3-yl)methylene)pyrazine-2-carbohydrazide]
15 | < 500 nM | > 1000 nM | CCOc1ccc(-c2cncc(C(=O)N/N=C/c3ccnn3CC)n2)cn1 [Compound 52, (E)-6-(6-ethoxypyridine-3-yl)-N'-((1-ethyl-1H-pyrazole-5-yl)methylene)pyrazine-2-carbohydrazide]
16 | > 1000 nM | > 1000 nM | CCOc1ccc(-c2cnc(O)c(C(=O)N/N=C/c3cc(OC)ccc3F)n2)cn1 [Compound 68, (E)-6-(6-ethoxypyridine-3-yl)-N'-(2-fluoro-5-methoxybenzylidene)-3-hydroxypyrazine-2-carbohydrazide]
17 | > 1000 nM | > 1000 nM | COc1ccc(F)c(/C=N/NC(=O)c2cncc(-c3ccc(OCCC4CNC4)nc3)n2)c1 [Compound 141, (E)-6-(6-(2-(azetidin-3-yl)ethoxy)pyridine-3-yl)-N'-(2-fluoro-5-methoxybenzylidene)pyrazine-2-carbohydrazide]

Continued, molecule first:

Row | SMILES | IC50 [1] | IC50 [2]
18 | COc1ccc(F)c(/C=N/NC(=O)c2cncc(-c3ccc(OC(F)(F)F)nc3)n2)n1 [Compound 97, (E)-N'-((3-fluoro-6-methoxypyridine-2-yl)methylene)-6-(6-(trifluoromethoxy)pyridine-3-yl)pyrazine-2-carbohydrazide] | > 1000 nM | > 1000 nM
19 | CCOc1ccc(-c2cncc(C(=O)N/N=C/c3ccnn3C(C)C)n2)cn1 [Compound 54, (E)-6-(6-ethoxypyridine-3-yl)-N'-((1-isopropyl-1H-pyrazole-5-yl)methylene)pyrazine-2-carbohydrazide] | < 500 nM | > 1000 nM
20 | CN(C)c1ccc(F)c(/C=N/NC(=O)c2cncc(-c3ccc(OC(F)F)nc3)n2)c1 [Compound 104, (E)-6-(6-(difluoromethoxy)pyridine-3-yl)-N'-(5-(dimethylamino)-2-fluorobenzylidene) pyrazine-2-carbohydrazide] | < 500 nM | > 1000 nM
21 | COc1ccc(F)c(/C=N/NC(=O)c2cncc(-c3ccc([S+](C)[O-])nc3)n2)c1 (centres unmarked) [Compound 131, (E)-N'-(2-fluoro-5-methoxybenzylidene)-6-(6-(methylsulfinyl)pyridine-3-yl)pyrazine-2-carbohydrazide] | 500 to 1000 nM | > 1000 nM
22 | COc1cnc(O)c(/C=N/NC(=O)c2cncc(-c3ccc(OC(F)F)nc3)n2)c1 [Compound 117, (E)-6-(6-(difluoromethoxy)pyridine-3-yl)-N'-((2-hydroxy-5-methoxypyridine-3-yl)methylene)pyrazine-2-carbohydrazide] | > 1000 nM | > 1000 nM
23 | COc1ccc(F)c(/C=N/NC(=O)c2nc(-c3ccc(OC(F)(F)F)nc3)cnc2O)c1 [Compound 99, (E)-N'-(2-fluoro-5-methoxybenzylidene)-3-hydroxy-6-(6-(trifluoromethoxy)pyridine-3-yl)pyrazine-2-carbohydrazide] | > 1000 nM | > 1000 nM
24 | O=C(N/N=C/c1ccccn1)c1cncc(-c2ccc(OC(F)(F)F)nc2)n1 [Compound 84, (E)-N'-(pyridine-2-ylmethylene)-6-(6-(trifluoromethoxy)pyridine-3-yl)pyrazine-2-carbohydrazide] | > 1000 nM | > 1000 nM
25 | CCOc1ccc(-c2cncc(C(=O)N/N=C/c3cccc(C(C)O)c3)n2)cn1 (centres unmarked) [Compound 22, (E)-6-(6-ethoxypyridine-3-yl)-N'-(3-(1-hydroxyethyl)benzylidene)pyrazine-2-carbohydrazide] | 500 to 1000 nM | > 1000 nM
26 | CCOc1ccc(-c2cncc(C(=O)N/N=C/c3nc(OC)ccc3F)n2)cn1 [Compound 15, (E)-6-(6-ethoxypyridine-3-yl)-N'-((3-fluoro-6-methoxypyridine-2-yl)methylene)pyrazine-2-carbohydrazide] | < 500 nM | > 1000 nM
27 | CC(C)Oc1ccc(F)c(/C=N/NC(=O)c2cncc(-c3ccc(OC(F)(F)F)nc3)n2)c1 [Compound 92, (E)-N'-(2-fluoro-5-isopropoxybenzylidene)-6-(6-(trifluoromethoxy)pyridine-3-yl)pyrazine-2-carbohydrazide] | < 500 nM | < 500 nM
28 | CCOc1ccc(-c2cncc(C(=O)N/N=C/c3cc(OC)cnc3O)n2)cn1 [Compound 42, (E)-6-(6-ethoxypyridine-3-yl)-N'-((2-hydroxy-5-methoxypyridine-3-yl)methylene) pyrazine-2-carbohydrazide] | > 1000 nM | > 1000 nM
29 | CCOc1ccc(-c2cncc(C(=O)N/N=C/c3cc(OC)ccc3C)n2)cn1 [Compound 17, (E)-6-(6-ethoxypyridine-3-yl)-N'-(5-methoxy-2-methylbenzylidene)pyrazine-2-carbohydrazide] | < 500 nM | 500 to 1000 nM
30 | CCOc1ccc(-c2cncc(C(=O)N(C)/N=C/c3cc(OC)cnc3F)n2)cn1 [Compound 175, (E)-6-(6-ethoxypyridine-3-yl)-N'-((2-fluoro-5-methoxypyridine-3-yl)methylene)-N-methylpyrazine-2-carbohydrazide] | > 1000 nM | > 1000 nM
31 | CCOc1ccc(-c2nc(C(=O)N/N=C/c3cc(OC)cnc3F)cnc2O)cn1 [Compound 67, (E)-6-(6-ethoxypyridine-3-yl)-N'-((2-fluoro-5-methoxypyridine-3-yl)methylene)-5-hydroxypyrazine-2-carbohydrazide] | > 1000 nM | > 1000 nM
